Measurements reported in ChEMBL document CHEMBL5291721, “A preclinical secondary pharmacology resource illuminates target-adverse drug reaction associations of marketed drugs” (Nat Commun, 2023).

Legend:
Thromboxane A2 receptor = target: T1, Thromboxane A2 receptor (Homo sapiens, UniProt P21731)
T1 sequence (P21731 whole entry): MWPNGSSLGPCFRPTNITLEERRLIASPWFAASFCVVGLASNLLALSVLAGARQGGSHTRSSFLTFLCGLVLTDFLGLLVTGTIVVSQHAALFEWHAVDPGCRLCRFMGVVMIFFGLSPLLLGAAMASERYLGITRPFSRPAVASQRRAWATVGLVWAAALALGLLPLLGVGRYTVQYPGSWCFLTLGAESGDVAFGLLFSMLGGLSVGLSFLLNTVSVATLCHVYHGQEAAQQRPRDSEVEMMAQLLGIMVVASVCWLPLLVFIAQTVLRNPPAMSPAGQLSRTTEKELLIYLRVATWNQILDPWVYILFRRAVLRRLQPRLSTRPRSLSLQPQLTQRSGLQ

[1] = target: Delta-type opioid receptor (Homo sapiens, UniProt P41143)
Delta-type opioid receptor, sequence (P41143 whole entry): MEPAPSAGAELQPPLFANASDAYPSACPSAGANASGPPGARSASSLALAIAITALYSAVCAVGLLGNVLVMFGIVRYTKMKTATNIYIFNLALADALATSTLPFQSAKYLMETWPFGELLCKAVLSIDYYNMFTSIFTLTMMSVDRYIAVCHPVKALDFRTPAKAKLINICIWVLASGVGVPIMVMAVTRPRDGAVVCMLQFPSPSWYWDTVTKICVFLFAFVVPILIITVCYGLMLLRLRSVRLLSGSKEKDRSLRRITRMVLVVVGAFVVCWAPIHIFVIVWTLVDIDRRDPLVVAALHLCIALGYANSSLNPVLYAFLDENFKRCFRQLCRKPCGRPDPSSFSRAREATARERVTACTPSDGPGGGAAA

[2] = target: Voltage-gated inwardly rectifying potassium channel KCNH2 (Homo sapiens, UniProt Q12809); assay type: functional; details: read-out: AC50
Voltage-gated inwardly rectifying potassium channel KCNH2, sequence (Q12809 whole entry): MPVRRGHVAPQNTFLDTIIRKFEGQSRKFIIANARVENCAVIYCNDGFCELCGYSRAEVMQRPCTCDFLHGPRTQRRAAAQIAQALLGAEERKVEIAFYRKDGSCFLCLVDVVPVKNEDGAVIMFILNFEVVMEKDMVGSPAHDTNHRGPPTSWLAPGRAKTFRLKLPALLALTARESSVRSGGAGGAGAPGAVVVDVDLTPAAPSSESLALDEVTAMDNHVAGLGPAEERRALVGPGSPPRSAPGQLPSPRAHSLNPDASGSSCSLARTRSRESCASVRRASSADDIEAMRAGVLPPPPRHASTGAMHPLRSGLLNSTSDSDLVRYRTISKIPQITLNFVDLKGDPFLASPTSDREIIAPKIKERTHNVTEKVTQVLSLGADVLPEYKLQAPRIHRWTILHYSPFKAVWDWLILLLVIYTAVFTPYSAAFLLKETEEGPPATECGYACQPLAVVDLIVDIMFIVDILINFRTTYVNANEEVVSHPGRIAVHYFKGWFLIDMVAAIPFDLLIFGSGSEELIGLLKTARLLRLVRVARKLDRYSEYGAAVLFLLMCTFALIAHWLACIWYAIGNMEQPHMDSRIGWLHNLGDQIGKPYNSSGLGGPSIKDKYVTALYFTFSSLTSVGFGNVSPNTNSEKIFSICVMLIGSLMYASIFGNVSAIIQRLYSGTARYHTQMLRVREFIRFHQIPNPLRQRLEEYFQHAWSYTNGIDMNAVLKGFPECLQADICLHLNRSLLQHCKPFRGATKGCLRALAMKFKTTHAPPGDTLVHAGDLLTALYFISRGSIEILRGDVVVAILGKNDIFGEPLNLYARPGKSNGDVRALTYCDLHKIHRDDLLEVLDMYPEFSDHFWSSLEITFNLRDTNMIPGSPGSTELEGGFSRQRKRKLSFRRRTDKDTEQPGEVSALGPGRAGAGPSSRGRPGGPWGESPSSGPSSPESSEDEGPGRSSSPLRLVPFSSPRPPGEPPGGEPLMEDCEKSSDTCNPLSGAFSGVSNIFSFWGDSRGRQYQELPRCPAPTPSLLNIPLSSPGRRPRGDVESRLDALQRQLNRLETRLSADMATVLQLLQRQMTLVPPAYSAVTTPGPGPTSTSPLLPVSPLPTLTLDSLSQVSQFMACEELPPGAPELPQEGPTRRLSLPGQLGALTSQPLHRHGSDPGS

[3] = target: Gamma-aminobutyric acid receptor subunit alpha-1 (Rattus norvegicus, UniProt P62813)
Gamma-aminobutyric acid receptor subunit alpha-1, sequence (P62813 whole entry): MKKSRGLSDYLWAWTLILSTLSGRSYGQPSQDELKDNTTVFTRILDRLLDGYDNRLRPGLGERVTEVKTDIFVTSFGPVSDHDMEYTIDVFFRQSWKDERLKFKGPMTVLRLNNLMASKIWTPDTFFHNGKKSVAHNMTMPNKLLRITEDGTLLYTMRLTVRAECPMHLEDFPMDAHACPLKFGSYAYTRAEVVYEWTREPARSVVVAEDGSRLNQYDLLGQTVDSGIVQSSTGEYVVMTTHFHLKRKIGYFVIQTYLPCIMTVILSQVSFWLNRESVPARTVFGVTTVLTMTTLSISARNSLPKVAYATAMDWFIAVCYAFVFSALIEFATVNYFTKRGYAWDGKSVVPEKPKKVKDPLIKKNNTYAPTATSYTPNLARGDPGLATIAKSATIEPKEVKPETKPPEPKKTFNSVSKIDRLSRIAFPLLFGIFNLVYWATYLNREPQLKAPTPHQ

[4] = target: Muscarinic acetylcholine receptor M3 (Homo sapiens, UniProt P20309)
Muscarinic acetylcholine receptor M3, sequence (P20309 whole entry): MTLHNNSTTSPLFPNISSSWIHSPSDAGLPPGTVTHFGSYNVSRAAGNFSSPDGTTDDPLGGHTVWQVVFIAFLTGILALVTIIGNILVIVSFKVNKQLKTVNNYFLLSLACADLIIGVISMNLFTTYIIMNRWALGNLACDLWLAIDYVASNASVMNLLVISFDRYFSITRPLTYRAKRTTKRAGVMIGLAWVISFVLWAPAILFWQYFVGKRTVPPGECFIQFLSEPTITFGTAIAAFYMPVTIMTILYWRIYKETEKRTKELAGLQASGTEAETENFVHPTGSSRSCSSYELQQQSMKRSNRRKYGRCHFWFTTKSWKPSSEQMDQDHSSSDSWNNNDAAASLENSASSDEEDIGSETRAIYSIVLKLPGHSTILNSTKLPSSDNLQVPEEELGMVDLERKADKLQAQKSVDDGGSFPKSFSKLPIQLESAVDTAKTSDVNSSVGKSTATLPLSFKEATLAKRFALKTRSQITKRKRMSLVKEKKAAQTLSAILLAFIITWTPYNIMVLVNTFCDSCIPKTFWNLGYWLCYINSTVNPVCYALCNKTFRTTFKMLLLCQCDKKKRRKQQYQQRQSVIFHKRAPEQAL

Vasopressin V1a receptor = Vasopressin V1a receptor (Homo sapiens, UniProt P37288)
Vasopressin V1a receptor, sequence (P37288 whole entry): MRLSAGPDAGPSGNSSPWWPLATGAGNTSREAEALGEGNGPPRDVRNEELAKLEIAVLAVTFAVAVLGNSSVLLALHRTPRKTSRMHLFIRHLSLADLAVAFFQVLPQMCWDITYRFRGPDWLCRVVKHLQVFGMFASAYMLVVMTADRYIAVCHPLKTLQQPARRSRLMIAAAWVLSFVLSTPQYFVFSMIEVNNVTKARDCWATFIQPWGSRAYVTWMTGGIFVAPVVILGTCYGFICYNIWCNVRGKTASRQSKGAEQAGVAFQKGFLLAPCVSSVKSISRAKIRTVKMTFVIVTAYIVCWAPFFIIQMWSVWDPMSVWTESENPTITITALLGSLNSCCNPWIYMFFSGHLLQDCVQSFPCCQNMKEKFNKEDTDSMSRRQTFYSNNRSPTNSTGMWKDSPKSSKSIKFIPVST

Melanocortin receptor 3 = Melanocortin receptor 3 (Homo sapiens, UniProt P41968)
Melanocortin receptor 3, sequence (P41968 whole entry): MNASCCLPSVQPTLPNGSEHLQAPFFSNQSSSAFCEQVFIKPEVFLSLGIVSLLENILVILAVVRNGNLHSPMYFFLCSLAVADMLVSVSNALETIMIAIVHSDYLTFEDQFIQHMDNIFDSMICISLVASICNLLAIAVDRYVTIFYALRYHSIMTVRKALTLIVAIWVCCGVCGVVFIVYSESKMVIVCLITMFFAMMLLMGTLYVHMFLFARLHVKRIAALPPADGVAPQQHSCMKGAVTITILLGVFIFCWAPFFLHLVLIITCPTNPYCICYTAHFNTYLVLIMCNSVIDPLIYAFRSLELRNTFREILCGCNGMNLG

D(3) dopamine receptor = D(3) dopamine receptor (Homo sapiens, UniProt P35462)
D(3) dopamine receptor, sequence (P35462 whole entry): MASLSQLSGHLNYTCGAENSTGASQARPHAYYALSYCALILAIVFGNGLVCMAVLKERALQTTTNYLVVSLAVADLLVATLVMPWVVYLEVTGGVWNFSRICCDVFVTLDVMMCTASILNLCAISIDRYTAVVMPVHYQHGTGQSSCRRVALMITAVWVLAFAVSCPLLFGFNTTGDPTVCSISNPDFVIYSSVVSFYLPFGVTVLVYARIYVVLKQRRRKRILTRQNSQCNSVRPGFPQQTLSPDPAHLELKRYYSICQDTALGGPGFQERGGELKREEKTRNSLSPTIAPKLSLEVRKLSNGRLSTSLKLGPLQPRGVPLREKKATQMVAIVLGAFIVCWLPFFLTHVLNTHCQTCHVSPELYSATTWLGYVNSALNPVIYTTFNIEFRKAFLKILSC

[5] = target: T2, Muscarinic acetylcholine receptor M2 (Homo sapiens, UniProt P08172); assay type: functional, cell-based
T2 sequence (P08172 whole entry): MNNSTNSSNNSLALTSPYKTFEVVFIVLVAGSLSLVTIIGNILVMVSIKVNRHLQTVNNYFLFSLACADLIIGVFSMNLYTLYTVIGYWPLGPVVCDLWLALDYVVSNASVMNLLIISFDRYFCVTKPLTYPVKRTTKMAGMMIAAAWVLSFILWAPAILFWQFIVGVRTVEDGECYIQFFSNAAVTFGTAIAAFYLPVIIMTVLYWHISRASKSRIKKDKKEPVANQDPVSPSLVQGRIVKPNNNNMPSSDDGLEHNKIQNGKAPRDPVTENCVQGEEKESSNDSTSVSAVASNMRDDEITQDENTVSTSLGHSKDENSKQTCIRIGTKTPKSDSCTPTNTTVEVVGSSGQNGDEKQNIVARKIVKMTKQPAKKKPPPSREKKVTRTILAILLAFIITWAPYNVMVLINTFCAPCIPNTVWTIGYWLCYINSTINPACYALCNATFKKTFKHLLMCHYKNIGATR

[6] = target: Neuronal acetylcholine receptor subunit alpha-4 (Homo sapiens, UniProt P43681)
Neuronal acetylcholine receptor subunit alpha-4, sequence (P43681 whole entry): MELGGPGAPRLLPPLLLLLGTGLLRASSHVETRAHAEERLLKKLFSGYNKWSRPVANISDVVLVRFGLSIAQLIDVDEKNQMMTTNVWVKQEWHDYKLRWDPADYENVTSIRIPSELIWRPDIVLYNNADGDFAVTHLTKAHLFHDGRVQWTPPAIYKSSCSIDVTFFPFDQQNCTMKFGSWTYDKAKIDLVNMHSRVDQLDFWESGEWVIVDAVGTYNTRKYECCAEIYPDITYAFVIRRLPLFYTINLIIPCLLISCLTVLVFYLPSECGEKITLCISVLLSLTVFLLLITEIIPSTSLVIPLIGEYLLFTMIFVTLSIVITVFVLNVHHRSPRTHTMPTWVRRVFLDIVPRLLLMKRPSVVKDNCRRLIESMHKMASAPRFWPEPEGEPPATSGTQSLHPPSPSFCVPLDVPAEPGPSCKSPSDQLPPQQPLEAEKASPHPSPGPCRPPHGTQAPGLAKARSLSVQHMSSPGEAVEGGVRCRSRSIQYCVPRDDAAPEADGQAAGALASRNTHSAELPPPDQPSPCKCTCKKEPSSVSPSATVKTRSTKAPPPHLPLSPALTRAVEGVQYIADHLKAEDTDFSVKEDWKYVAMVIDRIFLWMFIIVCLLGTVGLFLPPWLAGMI

[7] = target: T2, Muscarinic acetylcholine receptor M2; assay type: functional, cell-based; remark: listed apart in the source
[8] = target: Kappa-type opioid receptor (Homo sapiens, UniProt P41145)
Kappa-type opioid receptor, sequence (P41145 whole entry): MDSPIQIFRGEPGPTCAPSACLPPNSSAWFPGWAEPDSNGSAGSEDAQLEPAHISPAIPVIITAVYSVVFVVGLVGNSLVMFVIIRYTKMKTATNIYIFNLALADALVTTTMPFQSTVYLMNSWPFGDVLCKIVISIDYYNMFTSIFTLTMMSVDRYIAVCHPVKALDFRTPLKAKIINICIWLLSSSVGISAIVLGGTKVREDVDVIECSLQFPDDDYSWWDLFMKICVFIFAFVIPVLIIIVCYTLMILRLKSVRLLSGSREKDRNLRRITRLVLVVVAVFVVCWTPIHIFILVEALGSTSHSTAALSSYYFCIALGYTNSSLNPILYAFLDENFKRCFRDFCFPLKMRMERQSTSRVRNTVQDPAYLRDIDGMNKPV

Progesterone receptor = target: T3, Progesterone receptor (Homo sapiens, UniProt P06401); assay type: functional
T3 sequence (P06401 whole entry): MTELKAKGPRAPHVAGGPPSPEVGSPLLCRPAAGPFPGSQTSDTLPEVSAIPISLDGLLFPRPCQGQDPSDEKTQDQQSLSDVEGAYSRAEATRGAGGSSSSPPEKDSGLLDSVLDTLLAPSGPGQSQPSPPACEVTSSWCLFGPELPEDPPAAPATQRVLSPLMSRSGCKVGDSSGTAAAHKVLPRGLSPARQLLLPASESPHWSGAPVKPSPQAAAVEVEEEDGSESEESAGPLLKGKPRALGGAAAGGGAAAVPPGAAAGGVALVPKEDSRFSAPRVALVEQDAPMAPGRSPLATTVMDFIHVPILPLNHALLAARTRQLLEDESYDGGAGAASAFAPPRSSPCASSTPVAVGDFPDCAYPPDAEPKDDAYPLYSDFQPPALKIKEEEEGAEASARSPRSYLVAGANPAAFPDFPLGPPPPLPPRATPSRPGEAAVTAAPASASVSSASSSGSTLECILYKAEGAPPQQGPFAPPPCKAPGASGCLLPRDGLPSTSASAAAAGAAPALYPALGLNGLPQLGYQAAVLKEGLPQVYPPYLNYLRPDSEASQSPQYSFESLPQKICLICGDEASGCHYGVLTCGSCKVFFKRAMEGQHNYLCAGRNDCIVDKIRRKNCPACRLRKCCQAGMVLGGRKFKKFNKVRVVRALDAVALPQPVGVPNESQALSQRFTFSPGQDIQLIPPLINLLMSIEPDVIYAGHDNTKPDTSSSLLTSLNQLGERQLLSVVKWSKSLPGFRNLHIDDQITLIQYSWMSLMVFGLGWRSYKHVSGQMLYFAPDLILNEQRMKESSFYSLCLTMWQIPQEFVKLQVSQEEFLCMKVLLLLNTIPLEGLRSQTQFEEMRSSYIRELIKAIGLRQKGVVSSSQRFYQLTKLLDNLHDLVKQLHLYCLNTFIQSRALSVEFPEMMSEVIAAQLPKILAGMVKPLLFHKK

[9] = target: T4, Neuropeptide Y receptor type 1 (Homo sapiens, UniProt P25929)
T4 sequence (P25929 whole entry): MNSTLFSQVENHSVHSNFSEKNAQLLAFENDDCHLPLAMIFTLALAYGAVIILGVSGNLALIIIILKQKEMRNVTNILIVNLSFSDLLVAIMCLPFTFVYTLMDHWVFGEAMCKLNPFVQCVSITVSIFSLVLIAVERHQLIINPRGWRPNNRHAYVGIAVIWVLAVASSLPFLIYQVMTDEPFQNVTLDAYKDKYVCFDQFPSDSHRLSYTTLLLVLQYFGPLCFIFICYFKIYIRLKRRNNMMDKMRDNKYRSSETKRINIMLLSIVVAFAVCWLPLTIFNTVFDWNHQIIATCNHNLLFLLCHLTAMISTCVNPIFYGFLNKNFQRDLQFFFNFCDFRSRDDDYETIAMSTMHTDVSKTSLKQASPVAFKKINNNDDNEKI
Note: assay procedure not described here.

Compound | AC50 (Thromboxane A2 receptor) [µM] | AC50 [1] [µM] | AC50 [2] [µM] | AC50 [3] [µM] | AC50 [4] [µM] | AC50 (Vasopressin V1a receptor) [µM] | AC50 (Melanocortin receptor 3) [µM] | AC50 (D(3) dopamine receptor) [µM] | AC50 [5] [µM] | AC50 [6] [µM] | AC50 [7] [µM] | AC50 [8] [µM] | AC50 (Progesterone receptor) [µM] | AC50 [9] [µM]
O=C(CCCCC(=O)Nc1c(I)cc(I)c(C(=O)O)c1I)Nc1c(I)cc(I)c(C(=O)O)c1I [IODIPAMIDE] | > 10 | > 30 | > 30 | > 10 | > 30 | > 10 | > 10 | > 30 | > 10 | > 10 | > 10 | > 10 | > 10 | > 10
CC(C)[N+](C)(CCC(C(N)=O)(c1ccccc1)c1ccccc1)C(C)C [ISOPROPAMIDE] | > 10 | > 30 | 3.3 | > 10 | 0.0056 | > 10 | > 10 | > 30 | > 10 | > 10 | 0.01 | > 10 | > 10 | > 10
COC(=O)C1=C(C)NC(C)=C(C(=O)OC(C)C)C1c1cccc2nonc12 (stereo unspecified) [ISRADIPINE] | 20.1 | 11 | > 30 | > 10 | > 30 | > 30 | > 30 | > 30 | > 10 | > 30 | > 10 | 10.7 | > 30 | > 30
COc1ccc(C(=O)NCc2ccc(OCCN(C)C)cc2)cc1OC [ITOPRIDE] | > 30 | > 30 | > 30 | > 30 | > 30 | > 30 | > 30 | 20 | > 30 | > 30 | > 30 | > 30 | > 30 | > 30
CN1CC[C@]23CCCC[C@H]2[C@H]1Cc1ccc(O)cc13 [LEVORPHANOL] | > 10 | > 30 | 13.4 | > 10 | > 30 | > 10 | > 10 | > 30 | > 10 | > 10 | > 10 | 5.85 | > 10 | > 10
O=C(O)Cc1cn(-c2ccccc2)nc1-c1ccc(Cl)cc1 [LONAZOLAC] | > 30 | > 30 | > 30 | > 30 | > 30 | > 30 | > 30 | > 30 | > 30 | > 30 | > 30 | > 30 | > 30 | > 30
C#C[C@]1(O)CC[C@H]2[C@@H]3CCC4=CCCC[C@@H]4[C@H]3CC[C@@]21C [LYNESTRENOL] | > 30 | > 30 | > 30 | > 30 | > 30 | > 30 | > 30 | > 30 | > 30 | > 30 | > 30 | 1.5 | 5.2 | > 30
CC1=CC(=O)c2ccccc2C1=O [MENADIONE] | > 10 | > 30 | > 30 | > 10 | > 30 | > 10 | > 10 | > 30 | > 10 | > 10 | > 10 | > 10 | > 30 | > 10
CCCCC(C)(O)C/C=C/[C@H]1[C@H](O)CC(=O)[C@@H]1CCCCCCC(=O)OC (stereo partly specified) [MISOPROSTOL] | > 30 | > 30 | > 30 | > 30 | > 30 | > 30 | > 30 | > 30 | > 30 | > 30 | > 30 | > 30 | > 30 | > 30
O=C(OCCN1CCOCC1)c1cccnc1Nc1cccc(C(F)(F)F)c1 [MORNIFLUMATE] | > 30 | > 30 | 4.35 | > 30 | > 30 | > 30 | > 30 | > 30 | > 30 | > 30 | > 30 | 24 | > 30 | > 30
CN1CCCN=C1COC(=O)C(O)(c1ccccc1)C1CCCCC1 (stereo unspecified) [OXYPHENCYCLIMINE] | > 10 | > 30 | 3.77 | > 10 | > 30 | > 10 | > 10 | > 30 | > 10 | > 10 | 0.07 | > 10 | > 10 | > 10
CN1CCC2=C(C1)C(c1ccccc1)c1ccccc12 (stereo unspecified) [PHENINDAMINE] | > 10 | > 30 | > 30 | > 10 | > 30 | > 10 | > 10 | > 30 | > 10 | > 10 | > 10 | > 10 | > 30 | > 10
CN1C(=O)CC(c2ccccc2)C1=O (stereo unspecified) [PHENSUXIMIDE] | > 10 | > 30 | > 30 | > 10 | > 30 | > 10 | > 10 | > 30 | > 10 | > 10 | > 10 | > 10 | > 10 | > 10
Cc1nc2ccc(CN(C)c3ccc(C(=O)N[C@@H](CCC(=O)O)C(=O)O)s3)cc2c(=O)[nH]1 [RALTITREXED] | > 30 | > 30 | > 30 | > 30 | > 30 | > 30 | > 30 | > 30 | > 30 | > 30 | > 30 | > 30 | > 30 | > 30
